Results taken from patent US20250129104A1, “7H-PYRROLO[2,3-D]PYRIMIDINES AND PREPARATION AND USES THEREOF” (BioSplice Therapeutics, Inc., priority 2021, published 2025).

Key:
[1] = test system: Tau phosphorylation at Thr212 (pThr212); assay: tau phosphorylation assay: phosphoTau (Thr212) AlphaLISA in HEK293T cells transfected with DYRK1A and MAPT; format: cell-based; conditions: HEK-293T; HEK293T cells transfected with human DYRK1A and MAPT; 18-24 h compound treatment; read-out: pTau (Thr212) EC50
Procedure, shortened: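 HEK293T cells transiently co-transfected with human untagged DYRK1A and MAPT (441 aa Tau), reseeded, then treated 18-24 h at 37 °C with compounds (10-point 1:3 series, 20 μM to 1.1 nM final, duplicates). Lysates probed by AlphaLISA with HT7 donor and pThr212 acceptor antibodies; EC50 from curve fit of signal.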

[2] = target: recombinant DYRK1A kinase (Homo sapiens (Human), UniProt Q13627); assay: DYRK1A kinase assay (Ser/Thr 18 peptide Z-lyte FRET assay); format: biochemical; conditions: DYRK1A kinase activity; 15 μM ATP, 1 h room temperature; method text calls the value IC50
Procedure, shortened: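 FRET Z-lyte read-out (coumarin/fluorescein ratio, % phosphorylation) after 1 h development; IC50 from non-linear curve fit. Reaction: 0.25 μg/mL recombinant human DYRK1A, Ser/Thr 18 peptide 4 μM, ATP 15 μM, compound in 11-point 1:3 series from 10 μM, 1 h, room temperature, duplicate wells.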

Row | SMILES | EC50 [1] | EC50 [2]
1 | CC(C)CNc1ncc2c(-c3cc(F)c4ncnn4c3)c[nH]c2n1 [Compound 771, 5-(8-Fluoro-[1,2,4]triazolo[1,5-a]pyridin-6-yl)-N-isobutyl-7H-pyrrolo[2,3-d]pyrimidin-2-amine] | 470 nM | 18 nM
2 | CC(C)(F)CNc1ncc2c(-c3ccn4ncnc4c3)c[nH]c2n1 [Compound 805, 5-([1,2,4]Triazolo[1,5-a]pyridin-7-yl)-N-(2-fluoro-2-methylpropyl)-7H-pyrrolo[2,3-d]pyrimidin-2-amine] | 439 nM | 11.3 nM
3 | FC1(F)CC(Nc2ncc3c(-c4ccc5ncnn5c4)c[nH]c3n2)C1 [Compound 744, 5-([1,2,4]Triazolo[1,5-a]pyridin-6-yl)-N-(3,3-difluorocyclobutyl)-7H-pyrrolo [2,3-d]pyrimidin-2-amine] | 213 nM | 6.5 nM
4 | Cc1nc2c(F)cc(-c3c[nH]c4nc(C5CC5)ncc34)cc2n1C1CCN(C)CC1 [Compound 544, 2-Cyclopropyl-5-(4-fluoro-2-methyl-1-(1-methylpiperidin-4-yl)-1H-benzo[d]imidazol-6-yl)-7H-pyrrolo[2,3-d]pyrimidine] | 408 nM | 12.2 nM
5 | CN1CCN(c2cc(Nc3ncc4c(-c5ccc6c(c5)C(C)(C)CNC6=O)c[nH]c4n3)ccn2)CC1 [Compound 1849, 4,4-Dimethyl-6-(2-((2-(4-methylpiperazin-1-yl)pyridin-4-yl)amino)-7H-pyrrolo[2,3-d]pyrimidin-5-yl)-3,4-dihydroisoquinolin-1(2H)-one] | 168 nM | 2.1 nM
6 | C[C@@H](NC(=O)c1cnn2ccc(-c3c[nH]c4nc(C5CC5)ncc34)cc12)C(F)(F)F [Compound 1335, (R)-5-(2-Cyclopropyl-7H-pyrrolo[2,3-d]pyrimidin-5-yl)-N-(1,1,1-trifluoropropan-2-yl)pyrazolo[1,5-a]pyridine-3-carboxamide] | 236 nM | 17.7 nM
7 | COC[C@H](C)Nc1ncc2c(-c3cc(F)c4ncc(C)n4c3)c[nH]c2n1 [Compound 292, (S)-5-(8-Fluoro-3-methylimidazo[1,2-a]pyridin-6-yl)-N-(1-methoxypropan-2-yl)-7H-pyrrolo[2,3-d]pyrimidin-2-amine] | 509 nM | 17 nM
8 | CC(C)(F)CNc1ncc2c(-c3ccc4ncc(C(F)F)n4c3)c[nH]c2n1 [Compound 329, 5-(3-(difluoromethyl)imidazo[1,2-a]pyridin-6-yl)-N-(2-fluoro-2-methylpropyl)-7H-pyrrolo[2,3-d]pyrimidin-2-amine] | 211 nM | 6.8 nM
9 | COC[C@H](C)Nc1ncc2c(-c3cc(F)c4nccn4c3)c[nH]c2n1 [Compound 205, (S)-5-(8-Fluoroimidazo[1,2-a]pyridin-6-yl)-N-(1-methoxypropan-2-yl)-7H-pyrrolo[2,3-d]pyrimidin-2-amine] | 124 nM | 5.2 nM
10 | CC[C@H](C)Nc1ncc2c(-c3ccc4ncc(F)n4c3)c[nH]c2n1 [Compound 154, (S)—N-(sec-Butyl)-5-(3-fluoroimidazo[1,2-a]pyridin-6-yl)-7H-pyrrolo[2,3-d]pyrimidin-2-amine] | 476 nM | 25.9 nM
11 | FC1(CNc2ncc3c(-c4ccc5ncnn5c4)c[nH]c3n2)CCCCC1 [Compound 748, 5-([1,2,4]Triazolo[1,5-a]pyridin-6-yl)-N-((1-fluorocyclohexyl)methyl)-7H-pyrrolo[2,3-d]pyrimidin-2-amine] | 174 nM | 20 nM
12 | CC(F)(F)CNc1ncc2c(-c3ccc4ncnn4c3)c[nH]c2n1 [Compound 732, 5-([1,2,4]Triazolo[1,5-a]pyridin-6-yl)-N-(2,2-difluoropropyl)-7H-pyrrolo [2,3-d]pyrimidin-2-amine] | 191 nM | 11.7 nM
13 | CC[C@H](C)Nc1ncc2c(-c3cc(F)c4ncc(C)n4c3)c[nH]c2n1 [Compound 285, (S)—N-(sec-Butyl)-5-(8-fluoro-3-methylimidazo[1,2-a]pyridin-6-yl)-7H-pyrrolo[2,3-d]pyrimidin-2-amine] | 241 nM | 12.7 nM
14 | c1cn2cc(-c3c[nH]c4nc(CC5CCC5)ncc34)cnc2n1 [Compound 452, 2-(Cyclobutylmethyl)-5-(imidazo[1,2-a]pyrimidin-6-yl)-7H-pyrrolo[2,3-d]pyrimidine] | 1220 nM | 20.2 nM
15 | CN1CCC(NC(=O)c2cnn3ccc(-c4c[nH]c5nc(C6CCC6)ncc45)cc23)CC1 [Compound 1509, 5-(2-Cyclobutyl-7H-pyrrolo[2,3-d]pyrimidin-5-yl)-N-(1-methylpiperidin-4-yl)pyrazolo[1,5-a]pyridine-3-carboxamide] | 7020 nM | 39.9 nM
16 | C[C@@H](Nc1ncc2c(-c3ccc4ncnn4c3)c[nH]c2n1)C1CC1 [Compound 740, (R)-5-([1,2,4]Triazolo[1,5-a]pyridin-6-yl)-N-(1-cyclopropylethyl)-7H-pyrrolo [2,3-d]pyrimidin-2-amine] | 226 nM | 22 nM

Now those with a lower EC50 [1], led by results:

Row | EC50 [1] | EC50 [2] | SMILES
17 | 120 nM | 10.5 nM | CC1(CNc2ncc3c(-c4ccn5nccc5n4)c[nH]c3n2)CC1 [Compound 1658, N-((1-Methylcyclopropyl)methyl)-5-(pyrazolo[1,5-a]pyrimidin-5-yl)-7H-pyrrolo[2,3-d]pyrimidin-2-amine]
18 | 111 nM | 3.7 nM | FC1(F)CCC(Nc2ncc3c(-c4ccc5nccnc5c4)c[nH]c3n2)CC1 [Compound 1928, N-(4,4-Difluorocyclohexyl)-5-(quinoxalin-6-yl)-7H-pyrrolo[2,3-d]pyrimidin-2-amine]
19 | 107 nM | 6.8 nM | CN1CCC(Nc2ncc3c(-c4cc5cnccc5s4)c[nH]c3n2)CC1 [Compound 87, N-(1-Methylpiperidin-4-yl)-5-(thieno[3,2-c]pyridin-2-yl)-7H-pyrrolo[2,3-d]pyrimidin-2-amine]
20 | 54 nM | 2.3 nM | CC(C)(F)CNC(=O)c1cnn2ccc(-c3c[nH]c4nc(C5CC5)ncc34)cc12 [Compound 1292, 5-(2-Cyclopropyl-7H-pyrrolo[2,3-d]pyrimidin-5-yl)-N-(2-fluoro-2-methylpropyl)pyrazolo[1,5-a]pyridine-3-carboxamide]
21 | 47 nM | 4.9 nM | CC(C)(F)CNc1ncc2c(-c3ccc4nccnc4c3)c[nH]c2n1 [Compound 1913, N-(2-Fluoro-2-methylpropyl)-5-(quinoxalin-6-yl)-7H-pyrrolo[2,3-d]pyrimidin-2-amine]
22 | 32 nM | 5.7 nM | FC1(F)CCC(Nc2ncc3c(-c4ccn5nccc5c4)c[nH]c3n2)CC1 [Compound 1142, N-(4,4-Difluorocyclohexyl)-5-(pyrazolo[1,5-a]pyridin-5-yl)-7H-pyrrolo[2,3-d]pyrimidin-2-amine]
23 | 30 nM | 7.1 nM | Fc1cc(-c2c[nH]c3nc(NCC4(F)CC4)ncc23)cn2ccnc12 [Compound 208, N-((1-Fluorocyclopropyl)methyl)-5-(8-fluoroimidazo[1,2-a]pyridin-6-yl)-7H-pyrrolo[2,3-d]pyrimidin-2-amine]
24 | 27 nM | 1.6 nM | O=C(NCC(F)F)c1cnn2ccc(-c3c[nH]c4nc(C5CC5)ncc34)cc12 [Compound 1249, 5-(2-Cyclopropyl-7H-pyrrolo[2,3-d]pyrimidin-5-yl)-N-(2,2-difluoroethyl) pyrazolo[1,5-a]pyridine-3-carboxamide]
25 | 24 nM | 1.2 nM | CN1CCC(NC(=O)c2cnn3ccc(-c4c[nH]c5nc(NCC6(F)CCCCC6)ncc45)cc23)CC1 [Compound 1535, 5-(2-(((1-Fluorocyclohexyl)methyl)amino)-7H-pyrrolo[2,3-d]pyrimidin-5-yl)-N-(1-methylpiperidin-4-yl)pyrazolo[1,5-a]pyridine-3-carboxamide]
26 | 22 nM | 36 nM | CC(C)(C)CNc1ncc2c(-c3ccc4nccn4c3)c[nH]c2n1 [Compound 110, 5-(Imidazo[1,2-a]pyridin-6-yl)-N-neopentyl-7H-pyrrolo[2,3-d]pyrimidin-2-amine]
27 | 22 nM | 3.1 nM | CN1CCC(Nc2ncc3c(-c4ccc5ncccc5c4)c[nH]c3n2)CC1 [Compound 1888, N-(1-Methylpiperidin-4-yl)-5-(quinolin-6-yl)-7H-pyrrolo[2,3-d]pyrimidin-2-amine]
28 | 20 nM | 2.5 nM | FC1(CNc2ncc3c(-c4ccc5nccn5n4)c[nH]c3n2)CCC1 [Compound 923, N-((1-Fluorocyclobutyl)methyl)-5-(imidazo[1,2-b]pyridazin-6-yl)-7H-pyrrolo[2,3-d]pyrimidin-2-amine]
29 | 11 nM | 4.2 nM | c1cc2cc(-c3c[nH]c4nc(NC5CCOCC5)ncc34)ccn2n1 [Compound 1148, 5-(Pyrazolo[1,5-a]pyridin-5-yl)-N-(tetrahydro-2H-pyran-4-yl)-7H-pyrrolo [2,3-d]pyrimidin-2-amine]
30 | 2 nM | 9 nM | CO[C@H]1CC[C@@H](Nc2ncc3c(-c4ccc5ncccc5c4)c[nH]c3n2)CC1 [Compound 1885, N-(cis-4-Methoxycyclohexyl)-5-(quinolin-6-yl)-7H-pyrrolo[2,3-d]pyrimidin-2-amine]
